Data taken from patent US11371055B2, “Herbicide resistance genes” (CORTEVA AGRISCIENCE LLC, priority 2005, dated 2022).

Columns and labels:
[1] = system: Roundup Ready (RR) control corn hybrid (2P782); assay: Field tolerance of corn: visual injury and brace root injury, control hybrid; assay type: in vivo, Zea mays; conditions: for visual injury: 14 DAT; for % Visual Injury 14DAT: 2P782 control
Experimental: Seeds were planted with cone planter on 40-inch row spacing at Wayside and 30 inch spacing at Fowler. […] Herbicide treatments were 2,4-D (dimethylamine salt) at 1120, 2240 and 4480 g ae/ha, triclopyr at 840 g ae/ha, fluroxypyr at 280 g ae/ha and an untreated control. The AAD-12 (v1) events contained the AHAS gene as a selectable marker. The F2 corn events were segregating so the AAD-12 (v1) plants were treated with imazethapyr at 70 g ae/ha to remove the null plants. Herbicide treatments were applied when corn reached the V6 stage using compressed air backpack sprayer delivering 187 L/ha carrier volume at 130-200 kpa pressure. Visual injury ratings were taken at 7, 14 and 21 days after treatment.

wildtype tobacco = assay: Auxinic herbicide cross tolerance of stacked tobacco, wildtype; assay type: in vivo, Nicotiana tabacum; conditions: KY160 wildtype control
Experimental: Homozygous AAD-12 (v1) (pDAS1580) and AAD-1 (v3) (pDAB721) plants (see PCT/US2005/014737 for the latter) were both reciprocally crossed and F1 seed was collected. The F1 seed from two reciprocal crosses of each gene were stratified and treated 4 reps of each cross were treated under the same spray regimen as used for the other testing with one of the following treatments: 70, 140, 280 g ac/ha fluroxypyr (selective for the AAD-12 (v1) gene); 280, 560, 1120 g ae/ha R-dichloroprop (selective for the AAD-1 (v3) gene); or 560, 1120, 2240 g ae/ha 2,4-D DMA (to confirm 2,4-D tolerance). Homozygous T2 plants of each gene were also planted for use as controls. Plants were graded at 3 and 14 DAT.

[2] = system: AAD-12 (v1) tobacco lines (pDAS1580-[1]-018.001, pDAS1580-[1]-004.001, pDAS1580-[1]-020.016); assay: Field tolerance of tobacco, AAD-12 lines; assay type: in vivo, Nicotiana tabacum
Experimental: (§1) Field level tolerance trials were conducted on three AAD-12 (v1) lines (events pDAS1580-[1]-018.001, pDAS1580-[1]-004.001 and pDAS1580-[1]-020.016) and one wild-type line (KY160) at field stations in Indiana and Mississippi. Tobacco transplants were grown in the greenhouse by planting T1 seed in 72 well transplant flats (Hummert International) containing Metro 360 media according to growing conditions indicated above. The null plants were selectively removed by Liberty selection as previously described. The transplant plants were transported to the field stations and planted at either 14 or 24 inches apart using industrial vegetable planters. Drip irrigation at the Mississippi site and overhead irrigation at the Indiana site were used to keep plants growing vigorously.
(§2) The experimental design was a split plot design with 4 replications. The main plot was herbicide treatment and the sub-plot was tobacco line. The herbicide treatments were 2,4-D (dimethylamine salt) at 280, 560, 1120, 2240 and 4480 g ac/ha, triclopyr at 840 g ae/ha, fluroxypyr at 280 g ac/ha and an untreated control. Plots were one row by 25-30 ft. Herbicide treatments were applied 3-4 weeks after transplanting using compressed air backpack sprayer delivering 187 L/ha carrier volume at 130-200 kpa pressure. Visual rating of injury, growth inhibition, and epinasty were taken at 7, 14 and 21 days after treatment.

[3] = system: wild-type tobacco line (KY160); assay: Field tolerance of tobacco, wild-type line; assay type: in vivo, Nicotiana tabacum; conditions: for injury: 14 DAT; for Average % Injury across locations at 14 DAT: Wild type
Experimental: as §1, §2

[4] = system: AAD-12 (v1) canola events 3759(20)018.001 and 3759(18)030.001; assay: Field tolerance of canola, AAD-12 events; assay type: in vivo, Brassica napus; conditions: for average injury: 14DAT
Experimental: Field level tolerance trial was conducted on two AAD-12 (v1) events 3759(20)018.001 and 3759(18)030.001 and a wild-type canola (Nex710) in Fowler, Ind. The experimental design was a randomized complete block design with 3 replications. Herbicide treatments were 2,4-D (dimethylamine salt) at 280, 560, 1120, 2240 and 4480 g ac/ha, triclopyr at 840 g ae/ha, fluroxypyr at 280 g ae/ha and an untreated control. Within each herbicide treatment, single 20 ft row/event for event 3759(18)030.0011, 3759(18)018.001 and wild-type line (Nex710) were planted with a 4 row drill on 8 inch row spacing. Herbicide treatments were applied when canola reached the 4-6 leaf stage using compressed air backpack sprayer delivering 187 L/ha carrier volume at 130-200 kpa pressure. […]

wildtype KY160 tobacco = assay: Cross tolerance test, wildtype tobacco; assay type: in vivo, Nicotiana tabacum
Description: Two to four T0 individuals surviving high rates of 2,4-D and fluroxypyr were saved from each event and allowed to self fertilize in the greenhouse to give rise to T1 seed. The T1 seed was stratified, and sown into selection trays much like that of Arabidopsis (Example 7.4), followed by selective removal of untransformed nulls in this segregating population with 560 g ai/ha glufosinate (PAT gene selection). Survivors were transferred to individual 3-inch pots in the greenhouse. These lines provided high levels of resistance to 2,4-D in the T0 generation. Improved consistency of response is anticipated in T1 plants not having come directly from tissue culture. These plants were compared against wildtype KY160 tobacco. All plants were sprayed with a track sprayer set at 187 L/ha. The plants were sprayed from a range of 140-2240 g ac/ha 2,4-D dimethylamine salt (DMA), 70-1120 g ace/ha triclopyr or 35-560 g ae/ha fluroxypyr. All applications were formulated in water. Each treatment was replicated 2-4 times. Plants were evaluated at 3 and 14 days after treatment. Plants were assigned injury rating with respect to stunting, chlorosis, and necrosis. The T1 generation is segregating, so some variable response is expected due to difference in zygosity.

[5] = 2× rate of triclopyr (840 g ae/ha)
[6] = 2× rate of triclopyr (840 g ae/ha), 14 DAT

SMILES: O=C(O)COc1ccc(Cl)cc1Cl [2,4-D, 2,4-dichlorophenoxyacetic acid]
- visual injury ([1]; 2,4-D at 4480 g ae/ha, V6 stage): 44%
- % Visual Injury 14DAT ([1]; 1120 g ae/ha): 9%
- % Visual Injury 14DAT ([1]; 2240 g ae/ha): 20%
- % Visual Injury 14DAT ([1]; 4480 g ae/ha): 34%
- brace root injury ([1]; 4480 g ae/ha of 2,4-D): severe brace root fusing and malformation
- Brace Root Injury Rating (0-10 scale) 28DAT ([1]; Wild-type NK603, 1120 g ae/ha): 3
- Brace Root Injury Rating (0-10 scale) 28DAT ([1]; Wild-type NK603, 2240 g ae/ha): 5
- Brace Root Injury Rating (0-10 scale) 28DAT ([1]; Wild-type NK603, 4480 g ae/ha): 6
- Average % injury 14 DAT (wildtype tobacco; 560 g ae/ha): 63%
- Average % injury 14 DAT (wildtype tobacco; 1120 g ae/ha): 80%
- Average % injury 14 DAT (wildtype tobacco; 2240 g ae/ha): 90%
- average injury ([2]; 2,4-D at the 2× rate, 14DAT): 1%
- average injury ([2]; 2,4-D at the 4× rate, 14DAT): 4%
- average injury ([2]; 2,4-D at the 8× rate, 14 DAT): 4%
- Average % Injury across locations at 14 DAT ([2]; pDAS1580-[1]-004.001, 280 GM AE/HA): 0%
- Average % Injury across locations at 14 DAT ([2]; pDAS1580-[1]-004.001, 560 GM AE/HA): 0%
- Average % Injury across locations at 14 DAT ([2]; pDAS1580-[1]-004.001, 1120 GM AE/HA): 1%
- Average % Injury across locations at 14 DAT ([2]; pDAS1580-[1]-004.001, 2240 GM AE/HA): 4%
- Average % Injury across locations at 14 DAT ([2]; pDAS1580-[1]-004.001, 4480 GM AE/HA): 4%
- Average % Injury across locations at 14 DAT ([2]; pDAS1580-[1]-018.001, 280 GM AE/HA): 0%
- Average % Injury across locations at 14 DAT ([2]; pDAS1580-[1]-018.001, 560 GM AE/HA): 2%
- Average % Injury across locations at 14 DAT ([2]; pDAS1580-[1]-018.001, 1120 GM AE/HA): 2%
- Average % Injury across locations at 14 DAT ([2]; pDAS1580-[1]-018.001, 2240 GM AE/HA): 4%
- Average % Injury across locations at 14 DAT ([2]; pDAS1580-[1]-018.001, 4480 GM AE/HA): 4%
- Average % Injury across locations at 14 DAT ([2]; pDAS1580-[1]-020.016, 280 GM AE/HA): 0%
- Average % Injury across locations at 14 DAT ([2]; pDAS1580-[1]-020.016, 560 GM AE/HA): 0%
- Average % Injury across locations at 14 DAT ([2]; pDAS1580-[1]-020.016, 1120 GM AE/HA): 1%
- Average % Injury across locations at 14 DAT ([2]; pDAS1580-[1]-020.016, 2240 GM AE/HA): 4%
- Average % Injury across locations at 14 DAT ([2]; pDAS1580-[1]-020.016, 4480 GM AE/HA): 4%
- injury ([3]; 2,4-D at 560 g ae/ha (1× field application rate)): 63%
- Average % Injury across locations at 14 DAT ([3]; 280 GM AE/HA): 48%
- Average % Injury across locations at 14 DAT ([3]; 560 GM AE/HA): 63%
- Average % Injury across locations at 14 DAT ([3]; 1120 GM AE/HA): 78%
- Average % Injury across locations at 14 DAT ([3]; 2240 GM AE/HA): 87%
- Average % Injury across locations at 14 DAT ([3]; 4480 GM AE/HA): 92%
- average injury ([4]; 2,4-D at the 1× rate): 2%
- average injury ([4]; 2,4-D at the 2× rate): 3%
- average injury ([4]; 2,4-D at the 4× rate): 2%
- % Visual Injury at 14 DAT ([4]; AAD-12 event 3759(18)030.001, 280 GM AE/HA): 0 b %
- % Visual Injury at 14 DAT ([4]; AAD-12 event 3759(18)030.001, 560 GM AE/HA): 0 b %
- % Visual Injury at 14 DAT ([4]; AAD-12 event 3759(18)030.001, 1120 GM AE/HA): 2 ab %
- % Visual Injury at 14 DAT ([4]; AAD-12 event 3759(18)030.001, 2240 GM AE/HA): 3 ab %
- % Visual Injury at 14 DAT ([4]; AAD-12 event 3759(20)018.001, 280 GM AE/HA): 0 a %
- % Visual Injury at 14 DAT ([4]; AAD-12 event 3759(20)018.001, 560 GM AE/HA): 0 a %
- % Visual Injury at 14 DAT ([4]; AAD-12 event 3759(20)018.001, 1120 GM AE/HA): 2 a %
- % Visual Injury at 14 DAT ([4]; AAD-12 event 3759(20)018.001, 2240 GM AE/HA): 3 a %

SMILES: CNC.O=C(O)COc1ccc(Cl)cc1Cl [2,4-D DMA]
- Average % Injury of Replicates 14 DAT (wildtype KY160 tobacco; 140 g ae/ha): 45%
- Average % Injury of Replicates 14 DAT (wildtype KY160 tobacco; 560 g ae/ha): 60%
- Average % Injury of Replicates 14 DAT (wildtype KY160 tobacco; 2240 g ae/ha): 73%

SMILES: O=C(O)COc1nc(Cl)c(Cl)cc1Cl [triclopyr]
- % Visual Injury 14DAT ([1]; 840 g ae/ha): 31%
- visual injury [1, 5]: 31%
- average brace root injury score (0-10 scale) ([1]; Triclopyr at 840 g ae/ha, 28DAT): 7
- Brace Root Injury Rating (0-10 scale) 28DAT ([1]; Wild-type NK603, 840 g ae/ha): 7
- average injury across the three lines [2, 6]: 5%
- Average % Injury across locations at 14 DAT ([2]; pDAS1580-[1]-004.001, 840 GM AE/HA): 5%
- Average % Injury across locations at 14 DAT ([2]; pDAS1580-[1]-018.001, 840 GM AE/HA): 4%
- Average % Injury across locations at 14 DAT ([2]; pDAS1580-[1]-020.016, 840 GM AE/HA): 5%
- injury [3, 5]: 53%
- Average % Injury across locations at 14 DAT ([3]; 840 GM AE/HA): 53%
- average injury across the two events [4, 6]: 6%
- % Visual Injury at 14 DAT ([4]; AAD-12 event 3759(18)030.001, 840 GM AE/HA): 6 ab %
- % Visual Injury at 14 DAT ([4]; AAD-12 event 3759(20)018.001, 840 GM AE/HA): 6 a %
- Average % Injury of Replicates 14 DAT (wildtype KY160 tobacco; 70 g ae/ha): 40%
- Average % Injury of Replicates 14 DAT (wildtype KY160 tobacco; 280 g ae/ha): 65%
- Average % Injury of Replicates 14 DAT (wildtype KY160 tobacco; 1120 g ae/ha): 80%

SMILES: C[C@@H](Oc1ccc(Cl)cc1Cl)C(=O)O [(R)-dichlorprop, R-2,4-dichlorophenoxypropionic acid]
- Average % injury 14 DAT (wildtype tobacco; 280 g ae/ha): 25%
- Average % injury 14 DAT (wildtype tobacco; 560 g ae/ha): 60%
- Average % injury 14 DAT (wildtype tobacco; 1120 g ae/ha): 80%
